This is an account of results in EPA's ToxValDB 9.5.

Data set [1] relates to Anas platyrhynchos. Conditions: oral.
In data set [2] the test system is Nycticorax nycticorax. Conditions: oral.
Data set [3] has as its system Megascops sp. As to conditions: oral.
Data set [4] relates to Mus musculus. As to conditions: duration: 13 weeks, oral, M/F, CD1, Hepatotoxic lesions (males).
Data set [5] concerns Rattus norvegicus. Conditions: chronic; duration: 2 years; oral; drinking water; Liver: Lesions.
Data set [6] has as its system Rattus norvegicus. As to conditions: chronic, M/F, liver toxicity (fatty change).
The test system of data set [7] is Canidae. Conditions: repeat dose other; oral; Dog Other.
Data set [8] deals with Rattus norvegicus. As to conditions: repeat dose other; oral.
For data set [9], the system named is Monkey. As to conditions: developmental; oral; M/F; reduced birth weight.
Data set [10] concerns Neovison sp. Conditions: repeat dose other; oral; Mink.
Data set [11] deals with Canidae. As to conditions: chronic; duration: 4 months; oral; Beagle.
Data set [12] deals with Rattus norvegicus.
Data set [13] deals with Oryctolagus sp. Conditions: acute.
For data set [14], the system named is Gallus sp. Conditions: White Leghorn.
The subject of data set [15] is Mus musculus. Conditions: for LD50: acute.
The subject of data set [16] is Mus musculus. The experiment in a line: LD0; higher = less toxic. As to conditions: acute; oral.
In data set [17] the test system is Monkey. Conditions: subchronic; duration: 3 months; inhalation.
Data set [18] has as its system Cavia porcellus. As to conditions: subchronic; duration: 3 months; inhalation; Guinea Pig.
[19] abbreviates: chronic, duration: 24 months, oral, diet, Sprague-Dawley.
Setting [20] is: subchronic, duration: 8 weeks, oral, diet, Sprague-Dawley.
Setting [21] is: subchronic, duration: 13 weeks, oral, gavage, F33/N.
The mark [22] stands for this setting: subchronic, duration: 13 weeks, oral, gavage, B6C3F1.
Where [23] appears, read: subchronic, duration: 90 days, oral, diet.

Regarding `C[Se]CCC(N)C(=O)O` (stereo not given) [Selenomethionine], the lowest-observed-adverse-effect level (LOAEL) in data set [1] amounted to 0.8 mg/kg-day; in [3], 1.5 mg/kg-day. The NOAEL stood at 0.4 mg/kg-day in data set [1], 1.8 mg/kg-day in data set [2] and 0.44 mg/kg-day in data set [3].
In the case of `CC1CCc2cc(F)cc3c(=O)c(C(=O)O)cn1c23` (stereo not given) [Flumequine], the NOEL is 25 mg/kg-day in data set [4] (feed) and 25 mg/kg-day in data set [4] (subchronic, diet).
Consider `C=C(Cl)Cl` [1,1-Dichloroethylene], for which the LOAEL worked out at 9 mg/kg-day in [5]; 297 mg/m3 in data set [6] (inhalation); 14 mg/kg-day in data set [6] (oral, drinking water). Moreover, the NOAEL in [6] (inhalation) was determined as 99.1 mg/m3; in data set [6] (oral, drinking water), 9 mg/kg-day; in data set [7], 2.5 mg/kg-day; in data set [8] it was 30 mg/kg-day.
For `Clc1cccc(-c2cc(Cl)cc(Cl)c2)c1` [Aroclor 1016], the values for the LOAEL in [9] and in data set [10] were 0.028 mg/kg-day and 3.43 mg/kg-day, respectively. The values for the NOAEL in data set [9] and in data set [10] were 0.007 mg/kg-day and 1.37 mg/kg-day, respectively.
For the molecule `CC(C)(C)c1ccc(OP2OCC3(CO2)COP(Oc2ccc(C(C)(C)C)cc2C(C)(C)C)OC3)c(C(C)(C)C)c1` (stereo not given) [Bis(2,4-di-tert-butylphenyl) pentaerythritol diphosphite], the NOAEL in [11] was 12 mg/kg-day; in [12] (chronic, duration: 24 months, oral, diet, Wistar), 39 mg/kg-day; in [12] (reproduction developmental, duration: 90 days, oral, diet, Crl:CD(SD), generation: F0) it was 1000 ppm; in [12] (reproduction developmental, duration: 90 days, oral, diet, M, Crl:CD(SD)), 22 mg/kg-day. The LC50 in data set [12] (acute, inhalation, Sprague-Dawley) is > 2000 mg/m3. The LD50 in [12] (acute, oral, Sprague-Dawley) is 5580 mg/kg; in data set [13] (dermal, New Zealand), > 2000 mg/kg; in data set [14] (acute, oral, gavage), > 6080 mg/kg.
`O=C(Nc1ccc(Cl)cc1)Nc1ccc(Cl)c(Cl)c1` [Triclocarban]: the LD50 in data set [12] (acute, oral, gavage, Sprague-Dawley) is > 50100 mg/kg; in data set [15] (injection, Intraperitoneal) it was 2100 mg/kg; in data set [13] (dermal, occlusive, New Zealand) it was > 10000 mg/kg. Also, the LOAEL in data set [12] (setting [19]) was determined as 75 mg/kg-day; in [12] (setting [20]), 250 mg/kg-day. In addition, the NOAEL in data set [12] (setting [19]) is 25 mg/kg-day; in [12] (developmental, oral, diet, Sprague-Dawley) it was > 3000 ppm; in [12] (reproduction developmental, oral, diet, F, Sprague-Dawley) it was > 3000 ppm; in data set [12] (reproduction developmental, oral, diet, Sprague-Dawley, generation: F0) it was 3000 ppm; in data set [12] (reproduction developmental, oral, diet, Sprague-Dawley, generation: F1), 1000 ppm; in [12] (reproduction developmental, oral, diet, Sprague-Dawley, generation: F2), 3000 ppm. The same molecule gave an NOAEL in [12] (setting [20]) of 75 mg/kg-day. The LD0 in [16] was > 5000 mg/kg.
As for `CCCCC(CC)COP(=O)(OCC(CC)CCCC)OCC(CC)CCCC` (stereo not given) [Tris(2-ethylhexyl) phosphate], the NOAEL in data set [17] turned out to be 85 mg/m3; in data set [12] (setting [21]), 1000 mg/kg-day; in data set [12] (subchronic, duration: 30 days, oral, diet), 430 mg/kg-day; in data set [15] (setting [22]) it was 2000 mg/kg-day; in [18], 1.6 mg/m3. For the same molecule, the LD50 was > 0.45 mg/L in data set [12] (acute, inhalation); 20000 mg/kg in [13] (dermal); > 358 mg/kg in [13] (injection, intravenous); > 1810 mg/kg in data set [13] (intertracheal). Also, the LOAEL in [12] (setting [21]) was 2000 mg/kg-day; in data set [15] (setting [22]), 4000 mg/kg-day; in [18] it was 9.6 mg/m3.
As for `CCCCCCCCCc1ccc(OP(Oc2ccc(CCCCCCCCC)cc2)Oc2ccc(CCCCCCCCC)cc2)cc1` [Nonylphenolphosphite(3:1)], the LD50 in data set [12] (acute, dermal, semiocclusive, RAI f1) is > 2000 mg/kg; in data set [12] (acute, injection, Intraperitoneal, RAI f1), > 1000 mg/kg; in data set [15] (oral, gavage) it was > 10000 mg/kg; in data set [13] (dermal, semiocclusive, New Zealand) it was > 2000 mg/kg. The NOAEL in data set [12] (developmental, duration: 4 weeks, oral, gavage, Sprague-Dawley) was found to be 1000 mg/kg-day; in [12] (reproduction developmental, duration: 2 years, oral, diet, generation: F1), 3300 ppm; in [12] (reproduction developmental, duration: 4 weeks, oral, gavage, F, Sprague-Dawley), 1000 mg/kg-day; in data set [12] (reproduction developmental, duration: 4 weeks, oral, gavage, M, Sprague-Dawley), 200 mg/kg-day; in data set [12] (reproduction developmental, duration: 4 weeks, oral, gavage, Sprague-Dawley, generation: F0) it was 200 mg/kg-day; in data set [12] (reproduction developmental, duration: 4 weeks, oral, gavage, Sprague-Dawley, generation: F1), 200 mg/kg-day. Further, the NOAEL in data set [14] (developmental, duration: 5 days, injection) was found to be 5 mg. The “NOAEL (% diet)” value was found to be 1 in data set [12] (subchronic, duration: 12 weeks, oral, diet) and 1 in data set [12] (setting [23]). The “LOAEL (% diet)” value in data set [12] (setting [23]) was found to be 5.

The LOAEL is the lowest tested level that showed an adverse finding. What is called NOAEL is the highest tested level that showed no adverse finding.
